Here are results for eleven compounds from ChEMBL document CHEMBL1201862, “PubChem BioAssay data set” (2004).

Among the test systems are RPMI-8226; K562; OVCAR-8; HOP-92; CAKI-1; DU-145; UO-31; SNB-75; MDA-MB-435; HCC 2998; NCI-H23; SF-295; SR; COLO 205; SW-620; MCF7; A549; OVCAR-5; TK-10.
What all share (test): growth of human tumour cells (NCI), 48 h

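96-well plates; 48 h exposure; 5 concentrations. Endpoints by linear interpolation between flanking doses. Not reached: highest tested concentration assigned. Here, GI50 denotes the concentration required for 50% inhibition of growth.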 The source made the active and inactive calls. No stated cut-off is given here; in the data, active = GI50 up to about 1.1 µM and inactive = higher. Bounds are passed on as bounds.

Turning to `c1ccc(-c2cc(-c3cc(-c4ccccn4)[nH]n3)n[nH]2)nc1`, the GI50 is 70.6 µM (inactive) with RPMI-8226; 8.45 µM (inactive) in the test on K562; > 100 µM (inactive) with OVCAR-8; 77.8 µM (inactive) with HOP-92; > 100 µM (inactive) in the test with CAKI-1; 95.7 µM (inactive) in the test with DU-145. Besides, the GI50 in the test on UO-31 was 22.6 µM (inactive); with SNB-75, 69.8 µM (inactive); in the test with MDA-MB-435 it was > 100 µM (inactive); in the test on HCC 2998 it was 28.6 µM (inactive); with NCI-H23, 95.5 µM (inactive); in the test on SF-295, 85.5 µM (inactive). For the same compound, the GI50 in the test on SR was 17.6 µM (inactive); with COLO 205, > 100 µM (inactive); in the test with SW-620 it was > 100 µM (inactive); with MCF7 it was > 100 µM (inactive); with A549, 75.2 µM (inactive); with OVCAR-5, > 100 µM (inactive).
Regarding `Cc1cc(O)c2c(c1)C(=O)C=C(Br)C2=O`, the GI50 was 6.75 µM (inactive) in the test with RPMI-8226; 0.807 µM (active) in the test on K562; 19.6 µM (inactive) with OVCAR-8; 16.4 µM (inactive) in the test with TK-10; 13.8 µM (inactive) with HOP-92; 12.5 µM (inactive) in the test with CAKI-1. The GI50 in the test with DU-145 was 12.4 µM (inactive); with UO-31 it was 15.5 µM (inactive); in the test on SNB-75, 16.8 µM (inactive); in the test on MDA-MB-435, 14.5 µM (inactive); in the test with HCC 2998 it was > 43.7 µM (inactive); with NCI-H23 it was 17.1 µM (inactive). Moreover, the GI50 is 36 µM (inactive) in the test on SF-295; 1.3 µM (inactive) in the test with SR; 6.32 µM (inactive) with COLO 205; 3.42 µM (inactive) in the test with SW-620; 7.82 µM (inactive) with MCF7; 30.3 µM (inactive) in the test on A549. Moreover, in the test on OVCAR-5, the GI50 was 16.1 µM (inactive).
With `C[C@]12CC[C@H]3[C@@H](CCC4=CC(=O)CC[C@@H]43)[C@@H]1CC[C@]2(O)C(N)=O`, the GI50 with RPMI-8226, with K562, in the test on OVCAR-8, in the test with TK-10, in the test on HOP-92 and with DU-145 was > 100 µM (inactive) in each case. Further, the GI50 in the test with UO-31, in the test with SNB-75, in the test with MDA-MB-435, in the test with HCC 2998, with NCI-H23 and in the test on SF-295 was > 100 µM (inactive) each time. For the same compound, the GI50 with SR, with COLO 205, in the test with SW-620, in the test on MCF7, in the test with A549 and with OVCAR-5 was > 100 µM (inactive) in each case.
Regarding `COc1ccc(OC)c2sc(N3C(=O)/C(=C/Cc4ccco4)N=C3c3ccccc3)nc12`, the GI50 in the test on RPMI-8226 is 15.5 µM (inactive); in the test on K562 it was 29.9 µM (inactive); with OVCAR-8 it was 33.5 µM (inactive); in the test on TK-10 it was > 100 µM (inactive); in the test with HOP-92 it was 35.8 µM (inactive); in the test with CAKI-1, 81.1 µM (inactive). Besides, the GI50 in the test on DU-145 was 32.4 µM (inactive); in the test with UO-31, 30.9 µM (inactive); with SNB-75, 24.7 µM (inactive); with MDA-MB-435, 19.4 µM (inactive); in the test on HCC 2998 it was > 100 µM (inactive); with SF-295 it was 73.1 µM (inactive). In addition, the GI50 in the test with SR is 19.4 µM (inactive); in the test with COLO 205 it was 50.5 µM (inactive); with SW-620 it was 32.5 µM (inactive); in the test with MCF7, 17.7 µM (inactive); with A549 it was 34.7 µM (inactive); with OVCAR-5 it was > 100 µM (inactive).
Take `CCC(=O)COc1ccc(NC(NC(=O)C(C(F)(F)F)C(F)(F)F)(C(F)(F)F)C(F)(F)F)cc1`: the GI50 is 16.9 µM (inactive) in the test on RPMI-8226; 23.9 µM (inactive) in the test with OVCAR-8; 37 µM (inactive) in the test on TK-10; 39.1 µM (inactive) in the test on HOP-92; 36.1 µM (inactive) in the test with CAKI-1; 22.2 µM (inactive) in the test with DU-145. Moreover, the GI50 in the test on UO-31 is 39.8 µM (inactive); with SNB-75 it was 23.7 µM (inactive); in the test on MDA-MB-435, 42.7 µM (inactive); with HCC 2998 it was > 100 µM (inactive); in the test on NCI-H23, 36.5 µM (inactive); with SF-295 it was 66.4 µM (inactive). Besides, the GI50 was 12.2 µM (inactive) in the test with SR; 21.2 µM (inactive) with COLO 205; 41.3 µM (inactive) in the test on SW-620; 27.2 µM (inactive) with MCF7; 54.5 µM (inactive) in the test with A549; 46.8 µM (inactive) in the test on OVCAR-5.
For `CCOC(=O)/C=C/CCO[Si](C)(C)C(C)(C)C`, the GI50 in the test on RPMI-8226, in the test with K562, with OVCAR-8, in the test with TK-10, with HOP-92 and in the test on CAKI-1 was > 100 µM (inactive) in each case. In addition, the GI50 was > 100 µM (inactive) in the test with DU-145; > 100 µM (inactive) with UO-31; 82.8 µM (inactive) with SNB-75; > 100 µM (inactive) with MDA-MB-435; > 100 µM (inactive) with HCC 2998; > 100 µM (inactive) with NCI-H23. In addition, the GI50 is > 100 µM (inactive) in the test with SF-295; > 100 µM (inactive) in the test with SR; > 100 µM (inactive) in the test with COLO 205; > 100 µM (inactive) with SW-620; 97.5 µM (inactive) with MCF7; > 100 µM (inactive) with A549. Further, in the test on OVCAR-5, the GI50 is > 100 µM (inactive).
In the case of `Cc1ccc(C2=CC(=O)/C(=C\C(=O)c3ccc(Cl)cc3)O2)cc1`, the GI50 in the test with RPMI-8226 is 2.08 µM (inactive); in the test with K562, 4.15 µM (inactive); in the test on OVCAR-8, 3.13 µM (inactive); in the test on TK-10 it was 3.23 µM (inactive); with HOP-92, 14.1 µM (inactive); in the test on CAKI-1 it was 2.3 µM (inactive). Further, the GI50 was 32.6 µM (inactive) in the test on DU-145; 9.51 µM (inactive) in the test on UO-31; 35.8 µM (inactive) in the test with SNB-75; 18 µM (inactive) in the test with MDA-MB-435; 27.4 µM (inactive) with HCC 2998; 24.2 µM (inactive) with NCI-H23. The GI50 in the test on SR is 1.42 µM (inactive); in the test on COLO 205 it was 13.3 µM (inactive); in the test on SW-620, 2.39 µM (inactive); in the test on MCF7 it was 10.6 µM (inactive); with OVCAR-5, 21.1 µM (inactive).
Consider `O=C1CC(c2ccccc2Cl)C2(C(=O)NC(=S)NC2=O)C(c2ccccc2Cl)C1` (centres undefined), for which the GI50 was 34.1 µM (inactive) with RPMI-8226; 37.2 µM (inactive) in the test on K562; 23 µM (inactive) in the test on OVCAR-8; 0.0302 µM (active) in the test with TK-10; 0.284 µM (active) in the test with HOP-92; 34 µM (inactive) in the test with DU-145. The GI50 in the test on UO-31 is 46.5 µM (inactive); in the test on SNB-75 it was 69.8 µM (inactive); in the test on MDA-MB-435, 14.3 µM (inactive); in the test with HCC 2998, 27 µM (inactive); in the test with NCI-H23, 16.7 µM (inactive); in the test on SF-295, 22.9 µM (inactive). The GI50 with SR is 44 µM (inactive); in the test with COLO 205, 31.3 µM (inactive); with SW-620, 35.7 µM (inactive); in the test with MCF7 it was 18.3 µM (inactive); in the test on A549 it was 20.8 µM (inactive); in the test with OVCAR-5, 42.1 µM (inactive).
As to `c1ccc2cc3c(cc2c1)nc1ccccn13`, the GI50 in the test with RPMI-8226, in the test on K562, in the test on OVCAR-8, with TK-10, with HOP-92 and with DU-145 was > 100 µM (inactive) throughout. Also, the GI50 with UO-31, with SNB-75, in the test with MDA-MB-435, with HCC 2998, with NCI-H23 and in the test with SF-295 was > 100 µM (inactive) each time. In addition, the GI50 with SR is > 100 µM (inactive); with COLO 205 it was > 100 µM (inactive); in the test with SW-620 it was > 100 µM (inactive); in the test on MCF7, 28.2 µM (inactive); with A549, > 100 µM (inactive); in the test with OVCAR-5, > 100 µM (inactive).
Take `CNC1C(OC2C(OC3C(O)C(O)C(O)C(O)C3O)OC(C)C2(O)CO)OC(CO)C(O)C1O.N=C(N)N.NC(=O)O` (centres undefined): the GI50 in the test on RPMI-8226, in the test with K562, with OVCAR-8, in the test with TK-10, with HOP-92 and in the test on DU-145 was > 100 µM (inactive) each time. In addition, the GI50 with UO-31, in the test with SNB-75, in the test with MDA-MB-435, in the test on HCC 2998, in the test with NCI-H23 and in the test with SF-295 was > 100 µM (inactive) in each case. The GI50 in the test on SR, in the test on COLO 205, in the test with SW-620, in the test on MCF7, with A549 and with OVCAR-5 was > 100 µM (inactive) each time.
On to `CCc1nnc(CC)n1N1C(=O)CCC1=O`, for which the GI50 in the test with RPMI-8226, in the test on K562, with OVCAR-8, with TK-10, in the test with HOP-92 and with DU-145 was > 100 µM (inactive) in each case. Besides, the GI50 in the test on UO-31, in the test on SNB-75, with MDA-MB-435, with HCC 2998, with NCI-H23 and in the test on SF-295 was > 100 µM (inactive) in each case. The GI50 with SR, with COLO 205, with SW-620, with MCF7, with A549 and in the test with OVCAR-5 was > 100 µM (inactive) throughout.
